# In patent US20220281848A1, “PYRAZOLE-SUBSTITUTED PYRROLIDINONES AS HERBICIDES” (FMC Corporation, priority 2019, published 2022):
# System: plants
# Experiment: Test D post-emergence, other plants of Tables D2 and D4
# Type: in vivo
# Conditions: post-emergence
# Outline: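 Seeds treated with herbicide safener; sown in soil; glasshouse, 16 h light, 65% humidity. Sprayed day 1 (pre) or ~day 12 (post). Spray in 0.2% v/v adjuvant. Scored 0–100 damage: 20 DAA pre, 15 d post.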
compound,measurement,setting,value
CCn1nc([C@H]2CN(C)C(=O)[C@@H]2C(=O)Nc2cccc(F)c2F)c2cc(F)ccc21 [Compound 8],"damage to plant (100=total damage to plant; 0=no damage to plant), ABUTH","rate 130, evaluated after 15 d",0
same,"damage to plant (100=total damage to plant; 0=no damage to plant), ABUTH","rate 250, evaluated after 15 d",0
same,"damage to plant (100=total damage to plant; 0=no damage to plant), ABUTH","rate 500, evaluated after 15 d",0
same,"damage to plant (100=total damage to plant; 0=no damage to plant), AMARE","rate 130, evaluated after 15 d",0
same,"damage to plant (100=total damage to plant; 0=no damage to plant), AMARE","rate 250, evaluated after 15 d",0
same,"damage to plant (100=total damage to plant; 0=no damage to plant), AMARE","rate 500, evaluated after 15 d",0
same,"damage to plant (100=total damage to plant; 0=no damage to plant), BIDPI","rate 130, evaluated after 15 d",0
same,"damage to plant (100=total damage to plant; 0=no damage to plant), BIDPI","rate 250, evaluated after 15 d",0
same,"damage to plant (100=total damage to plant; 0=no damage to plant), BIDPI","rate 500, evaluated after 15 d",0
same,"damage to plant (100=total damage to plant; 0=no damage to plant), BRAPL","rate 130, evaluated after 15 d",10
same,"damage to plant (100=total damage to plant; 0=no damage to plant), BRAPL","rate 250, evaluated after 15 d",70
same,"damage to plant (100=total damage to plant; 0=no damage to plant), BRAPL","rate 500, evaluated after 15 d",70
same,"damage to plant (100=total damage to plant; 0=no damage to plant), CYPES","rate 130, evaluated after 15 d",0
same,"damage to plant (100=total damage to plant; 0=no damage to plant), CYPES","rate 250, evaluated after 15 d",0
same,"damage to plant (100=total damage to plant; 0=no damage to plant), CYPES","rate 500, evaluated after 15 d",0
same,"damage to plant (100=total damage to plant; 0=no damage to plant), DIGSA","rate 130, evaluated after 15 d",0
same,"damage to plant (100=total damage to plant; 0=no damage to plant), DIGSA","rate 250, evaluated after 15 d",80
same,"damage to plant (100=total damage to plant; 0=no damage to plant), DIGSA","rate 500, evaluated after 15 d",80
same,"damage to plant (100=total damage to plant; 0=no damage to plant), ECHCG","rate 130, evaluated after 15 d",0
same,"damage to plant (100=total damage to plant; 0=no damage to plant), ECHCG","rate 250, evaluated after 15 d",80
same,"damage to plant (100=total damage to plant; 0=no damage to plant), ECHCG","rate 500, evaluated after 15 d",80
same,"damage to plant (100=total damage to plant; 0=no damage to plant), EPHHL","rate 250, evaluated after 15 d",30
same,"damage to plant (100=total damage to plant; 0=no damage to plant), EPHHL","rate 500, evaluated after 15 d",20
same,"damage to plant (100=total damage to plant; 0=no damage to plant), GLXMA","rate 130, evaluated after 15 d",0
same,"damage to plant (100=total damage to plant; 0=no damage to plant), GLXMA","rate 250, evaluated after 15 d",0
same,"damage to plant (100=total damage to plant; 0=no damage to plant), GLXMA","rate 500, evaluated after 15 d",0
same,"damage to plant (100=total damage to plant; 0=no damage to plant), IPOHE","rate 130, evaluated after 15 d",0
same,"damage to plant (100=total damage to plant; 0=no damage to plant), IPOHE","rate 250, evaluated after 15 d",0
same,"damage to plant (100=total damage to plant; 0=no damage to plant), IPOHE","rate 500, evaluated after 15 d",0
same,"damage to plant (100=total damage to plant; 0=no damage to plant), ORYSA","rate 130, evaluated after 15 d",0
same,"damage to plant (100=total damage to plant; 0=no damage to plant), ORYSA","rate 250, evaluated after 15 d",0
same,"damage to plant (100=total damage to plant; 0=no damage to plant), ORYSA","rate 500, evaluated after 15 d",10
same,"damage to plant (100=total damage to plant; 0=no damage to plant), PANMI","rate 130, evaluated after 15 d",0
same,"damage to plant (100=total damage to plant; 0=no damage to plant), PANMI","rate 250, evaluated after 15 d",0
same,"damage to plant (100=total damage to plant; 0=no damage to plant), PANMI","rate 500, evaluated after 15 d",0
same,"damage to plant (100=total damage to plant; 0=no damage to plant), SETFA","rate 130, evaluated after 15 d",0
same,"damage to plant (100=total damage to plant; 0=no damage to plant), SETFA","rate 250, evaluated after 15 d",60
same,"damage to plant (100=total damage to plant; 0=no damage to plant), SETFA","rate 500, evaluated after 15 d",80
same,"damage to plant (100=total damage to plant; 0=no damage to plant), SIDSP","rate 130, evaluated after 15 d",0
same,"damage to plant (100=total damage to plant; 0=no damage to plant), SIDSP","rate 250, evaluated after 15 d",0
same,"damage to plant (100=total damage to plant; 0=no damage to plant), SIDSP","rate 500, evaluated after 15 d",10
same,"damage to plant (100=total damage to plant; 0=no damage to plant), SORVU","rate 130, evaluated after 15 d",0
same,"damage to plant (100=total damage to plant; 0=no damage to plant), SORVU","rate 250, evaluated after 15 d",0
same,"damage to plant (100=total damage to plant; 0=no damage to plant), SORVU","rate 500, evaluated after 15 d",0
